Among the data in patent US12208088B2 (Genentech, Inc., priority 2018, dated 2025) are Ki values, retold here.

In the assay the target is HPK1 (Homo sapiens (Human), UniProt Q92918). The assay is described as follows: HPK1 Lantha binding assay ("Lanth"). The settings on record: binding assays; Morrison Ki fit. The method, boiled down:
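TR-FRET binding competition using 2 nM HPK1, 2 nM Eu-anti-GST antibody and 15 nM Tracer222 at 23 °C. Compound was incubated 1 h with enzyme and antibody, then 1 h after tracer addition, with an 11-point 5-fold dilution series. Ki obtained from a Morrison fit that corrects for tracer concentration and Kd.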

The structures appear in SMILES notation.

HPK1, sequence (Q92918 1-346 limits assumed): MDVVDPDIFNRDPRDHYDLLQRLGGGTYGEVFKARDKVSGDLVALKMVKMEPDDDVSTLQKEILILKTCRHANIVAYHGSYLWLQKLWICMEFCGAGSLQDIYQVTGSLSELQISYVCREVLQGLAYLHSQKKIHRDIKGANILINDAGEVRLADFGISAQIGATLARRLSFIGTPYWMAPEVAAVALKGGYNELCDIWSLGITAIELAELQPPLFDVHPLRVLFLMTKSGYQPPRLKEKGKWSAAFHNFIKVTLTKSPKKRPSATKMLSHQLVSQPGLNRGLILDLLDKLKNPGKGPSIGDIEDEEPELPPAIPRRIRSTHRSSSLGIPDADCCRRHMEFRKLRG

As for `O=S(=O)(Nc1ccc(-c2cnc3c(c2Cl)C2(CC=CC2)CN3)cc1)C1CC1` [Compound 207, N-(4-(4′-Chloro-1′,2′-dihydrospiro[cyclopentane-1,3′-pyrrolo[2,3-b]pyridin]-3-en-5′-yl)phenyl)cyclopropanesulfonamide], the affinity corresponds to a Ki of 87 nM.

Molecule `O=S1(=O)CCCN1c1ccc(-c2cnc3c(c2Cl)C2(CC=CC2)CN3)cc1` [Compound 208, 2-(4-(4′-Chloro-1′,2′-dihydrospiro[cyclopentane-1,3′-pyrrolo[2,3-b]pyridin]-3-en-5′-yl)phenyl)isothiazolidine 1,1-dioxide] returned a Ki of 201 nM.

`O=S(=O)(Nc1cccc(-c2cnc3c(c2Cl)C2(CC=CC2)CN3)c1)C1CC1` [Compound 209, N-(3-(4′-Chloro-1′,2′-dihydrospiro[cyclopentane-1,3′-pyrrolo[2,3-b]pyridin]-3-en-5′-yl)phenyl)cyclopropanesulfonamide]: the inhibition constant Ki is 199 nM.

The molecule `CS(=O)(=O)Nc1cccc(-c2cnc3c(c2Cl)C2(CC=CC2)CN3)c1` [Compound 210, N-(3-(4′-Chloro-1′,2′-dihydrospiro[cyclopentane-1,3′-pyrrolo[2,3-b]pyridin]-3-en-5′-yl)phenyl)methanesulfonamide] gave a Ki of 70.8 nM. This Ki is about 2.8-fold lower than that of the molecule before.

The molecule `CC(=O)NCc1cccc(-c2cnc3c(c2Cl)C2(CC=CC2)CN3)c1` [Compound 211, N-(3-(4′-Chloro-1′,2′-dihydrospiro[cyclopentane-1,3′-pyrrolo[2,3-b]pyridin]-3-en-5′-yl)benzyl)acetamide] yielded a Ki of 145 nM.

`CC(=O)NCc1ccc(-c2cnc3c(c2Cl)C2(CC=CC2)CN3)cc1` [Compound 212, N-(4-(4′-Chloro-1′,2′-dihydrospiro[cyclopentane-1,3′-pyrrolo[2,3-b]pyridin]-3-en-5′-yl)benzyl)acetamide] showed a Ki of 112 nM.

Regarding `CC(=O)NCCc1ccc(-c2cnc3c(c2Cl)C2(CC=CC2)CN3)cc1` [Compound 213, N-(4-(4′-chloro-1′,2′-dihydrospiro[cyclopentane-1,3′-pyrrolo[2,3-b]pyridin]-3-en-5′-yl)phenethyl)acetamide], the affinity corresponds to a Ki of 286 nM.

As for `O=C(NCCO)c1ccc(-c2cnc3c(c2Cl)C2(CC=CC2)CN3)cc1` [Compound 214, 4-(4′-Chloro-1′,2′-dihydrospiro[cyclopentane-1,3′-pyrrolo[2,3-6]pyridin]-3-en-5′-yl)-N-(2-hydroxyethyl)benzamide], the affinity corresponds to a Ki of 340 nM.

The molecule `Clc1c(-c2ccc(-n3cccn3)cc2)cnc2c1C1(CC=CC1)CN2` [Compound 215, 5′-(4-(1H-Pyrazol-1-yl)phenyl)-4′-chloro-1′,2′-dihydrospiro[cyclopentane-1,3′-pyrrolo[2,3-b]pyridin]-3-ene] returned a Ki of 676 nM.

`OCc1ccc(-c2cnc3c(c2Cl)C2(CC=CC2)CN3)c(F)c1` [Compound 216, (4-(4′-Chloro-1′,2′-dihydrospiro[cyclopentane-1,3′-pyrrolo[2,3-b]pyridin]-3-en-5′-yl)-3-fluorophenyl)methanol] yielded a Ki of 330 nM.

In turn, `CN(C)S(=O)(=O)Nc1cccc(-c2cnc3c(c2Cl)C2(CC=CC2)CN3)c1` [Compound 218, N-(3-(4′-Chloro-1′,2′-dihydrospiro[cyclopentane-1,3′-pyrrolo[2,3-b]pyridin]-3-en-5′-yl)phenyl)-N′,N′-dimethylsulfamide] showed a Ki of 230 nM.

The molecule `OCc1cccc(-c2cnc3c(c2Cl)C2(CC=CC2)CN3)c1F` [Compound 219, (3-(4′-Chloro-1′,2′-dihydrospiro[cyclopentane-1,3′-pyrrolo[2,3-b]pyridin]-3-en-5′-yl)-2-fluorophenyl)methanol] had an inhibitory constant (Ki) of 478 nM.

Molecule `Clc1c(-c2ccc(COC3CCOCC3)cc2)cnc2c1C1(CC=CC1)CN2` [Compound 220, 4′-Chloro-5′-(4-(((tetrahydro-2H-pyran-4-yl)oxy)methyl)phenyl)-1′,2′-dihydrospiro[cyclopentane-1,3′-pyrrolo[2,3-b]pyridin]-3-ene] came in with an inhibition constant (Ki) of 308 nM.

Broadly, the Ki is the dissociation constant of the complex between target and ligand, obtained from inhibition or displacement. High values mean weaker binding, low ones tighter binding.
